Test results from patent US20080026362A1, “Three-dimensional culture containing human articular chondrocytes with induced terminal differentiation changes, and preparation process and uses of the same” (Kaohsiung Medical University, priority 2006, published 2008).

How the values were obtained:
Type in all cases: cell-based
[1] = test system: collagen type X gene; test: Quantitative real-time PCR, mRNA expression of collagen type X in human articular chondrocytes (KMU-AC); conditions: normalized to GAPDH, control Day 3 = 100%, mean ± S.E.M.
Description: The alginate beads were prepared with reference to C. Sanchez et al. (2002), J. Rheumatol, 29:772-82. Briefly, the above-described human articular chondrocyte cultures were suspended in a 1.2% alginate solution in 0.9% NaCl, so as to form a cell suspension at a density of 1×10^6 cells/mL. The cell suspension was then slowly dropped into a 102 mM CaCl2 solution through a yellow pipette tip, to result in the formation of alginate beads entrapping the human articular chondrocytes. The thus-formed alginate beads were allowed to polymerize for further 10 minutes in the CaCl2 solution at room temperature. […]
(§1) The NHAC-kn cultures were used in the following experiments except the quantitative real-time polymerase chain reaction (quantitative real-time PCR). The KMU-AC cultures were used to quantify mRNA expression by quantitative real-time PCR, which was performed to further confirm the effect of Aza-C on gene expression of human articular chondrocytes.
(§2) Quantitative real-time PCR was also performed to further confirm the finding from RT-PCR. On Day 3, 7 and 14 after a 48 hr Aza-C treatment, the mRNA expressions of type II and type X collagens and ALP of Aza-C treated and control cells were measured. […]
The thus-obtained PCR products (amplicons) were detected by the fluorescence of SYBR Green, the double stranded DNA binding dye (T. B. Morrison et al. (1998), Biotechniques, 24:954-958, 960, 962). […]

[2] = test system: collagen type X gene; test: RT-PCR, mRNA expression of collagen type X in alginate-bead human articular chondrocytes (NHAC-kn); conditions: p<0.01
Description: (§3) The alginate beads were prepared with reference to C. Sanchez et al. (2002), J. Rheumatol, 29:772-82. Briefly, the above-described human articular chondrocyte cultures were suspended in a 1.2% alginate solution in 0.9% NaCl, so as to form a cell suspension at a density of 1×10^6 cells/mL. The cell suspension was then slowly dropped into a 102 mM CaCl2 solution through a yellow pipette tip, to result in the formation of alginate beads entrapping the human articular chondrocytes. The thus-formed alginate beads were allowed to polymerize for further 10 minutes in the CaCl2 solution at room temperature.
(§4) After washing with saline solution, 15 alginate beads were cultivated in 5 ml of culture medium per well in a 6-well plate. Culture medium was the Chondrocyte basal medium (Bulletkit, Clonic®; BioWhittaker, Walkersville, Md.) with a supplement of the Chondrocyte growth medium, containing R3-IGF1, bFGF, transferrin, insulin, fetal bovine serum and gentamicin/amphotericin-B (SingleQuots, Clonic®; BioWhittaker, Walkersville, Md.). The alginate beads were cultured for 7 days at 37° C. in a humidified incubator with 5% CO2 and the culture medium was changed every 3 days. […]
as §1
(§5) On Day 3, 7 and 14 after a 48 hr Aza-C treatment, expressions of the mRNA of type II and type X collagens and alkaline phosphatase (ALP) of Aza-C-treated and non-treated cells (control) were measured by RT-PCR. […]
The thus-obtained PCR products (amplicons) were resolved by electrophoresis on a 1.4% agarose gel and visualised by ethidium bromide staining. The optical densities of the resolved bands were semi-quantified using a Bioimaging System (UVP Inc., Upland, Calif.). […] The optical intensity ratios of the PCR products to the 18S rRNA gene were calculated for comparison.

[3] = test system: collagen type II gene; test: Quantitative real-time PCR, mRNA expression of collagen type II in human articular chondrocytes (KMU-AC); conditions: normalized to GAPDH, control Day 3 = 100%, mean ± S.E.M.
Description: as §3
as §4, with “Md.).” for “Md.). The alginate beads were cultured for 7 days at 37° C. in a humidified incubator with 5% CO2 and the culture medium was changed every 3 days.”
as §1, §2
(§6) The quantitative real-time PCR was performed in an ABI Prism 7900 HT Sequence Detection System (Applied Biosystems, Foster City, Calif.) using the SYBR Green PCR Master Mix Reagent containing the Amplitag Gold DNA polymerase, dNTP mixed with dUTP, SYBR Green 1, passive reference and reaction buffer (Applied Biosystems, Foster City, Calif.). […]

[4] = test system: human articular chondrocytes; test: TUNEL assay, apoptotic rate of chondrocytes; conditions: Day 14 after 48 hr 15 μg/mL Aza-C; NHAC-kn; p<0.01
Description: (§7) The cultivated alginate beads as described above were treated with 15 μg/mL of 5-azacytidine (Sigma, St Louis, Mo.) for 48 hours. Thereafter, they were maintained in media without Aza-C for another 2 weeks. Cells were harvested on Day 3, 7 and 14 after Aza-C treatment, respectively. The control cultures were cultivated and harvested under the same conditions except that the treatment of Aza-C was omitted.
(§8) Human articular chondrocytes were released from the alginate beads by dissolving the beads in a 0.9% NaCl solution containing 0.05M sodium citrate and 0.03M sodium EDTA at pH 7.4. Cells for each experiment were collected by low-speed centrifugation at 1,000 rpm for 5 min.
as §1
Fragmented DNA of an apoptotic cell was TUNEL stained using an In Situ Cell Death Detection Kit, TMR red (Roche, Germany). […] Slides were observed on a fluorescence microscope with an excitation wavelengthof 580 nm for rhodamine and 365 nm for DAPI. […] Stained cells were counted in 5 microscopic fields for each slide. […]

[5] = test system: collagen type II gene; test: RT-PCR, mRNA expression of collagen type II in alginate-bead human articular chondrocytes (NHAC-kn); conditions: p<0.01
Description: as §3
(§9) After washing with saline solution, 15 alginate beads were cultivated in 5 ml of culture medium per well in a 6-well plate. […]
as §1, §5

[6] = test system: ALP gene; test: Quantitative real-time PCR, mRNA expression of ALP in human articular chondrocytes (KMU-AC); conditions: normalized to GAPDH, control Day 3 = 100%, mean ± S.E.M.
Description: as §3
as §4, with “Md.).” for “Md.). The alginate beads were cultured for 7 days at 37° C. in a humidified incubator with 5% CO2 and the culture medium was changed every 3 days.”
as §1, §2, §6

[7] = test system: alkaline phosphatase (ALP) gene; test: RT-PCR, mRNA expression of alkaline phosphatase in alginate-bead human articular chondrocytes (NHAC-kn); conditions: p<0.01
Description: as §3, §9, §1, §5

[8] = test system: human articular chondrocytes; test: Flow cytometry, cell size of articular chondrocytes; conditions: Day 14 after 48 hr 15 μg/mL Aza-C, NHAC-kn
Description: as §7, §8, §1
The cell size of articular chondrocytes from the control and Aza-C treated cultures was analysed by flow cytometry on Day 14 after the Aza-C treatment. […] Cells (1×10^6) were then suspended in phosphate buffered saline and analysed immediately on a laser flow cytometer (EPICS Elite; Coulter, Hialeah, Fla.). […]

[9] = Day 3 after 48 hr 15 μg/mL Aza-C
[10] = Day 14 after 48 hr 15 μg/mL Aza-C
[11] = Day 7 after 48 hr treatment with 15 μg/ml Aza-C
[12] = Day 14 after 48 hr treatment with 15 μg/ml Aza-C
[13] = Day 7 after 48 hr 15 μg/mL Aza-C

Structure (SMILES): Nc1ncn([C@@H]2O[C@H](CO)[C@@H](O)[C@H]2O)c(=O)n1 [Aza-C, 5-azacytidine]
- Percentage change of mRNA expression of collagen type X by quantitative real-time PCR [1, 9]: 398.0 ± 26.3 %
- Percentage change of mRNA expression of collagen type X by quantitative real-time PCR [1, 10]: 335.0 ± 1.4 %
- mRNA expression of collagen type X gene (RT-PCR, normalized to 18S rRNA) vs control group ([2]; Day 3 after 48 hr treatment with 15 μg/ml Aza-C): significantly increased
- mRNA expression of collagen type X gene (RT-PCR, normalized to 18S rRNA) vs control group [2, 11]: significantly increased
- mRNA expression of collagen type X gene (RT-PCR, normalized to 18S rRNA) vs control group [2, 12]: significantly increased
- Percentage change of mRNA expression of collagen type II by quantitative real-time PCR [3, 9]: 7.3 ± 1.2 %
- Percentage change of mRNA expression of collagen type II by quantitative real-time PCR [3, 13]: 1.0 ± 0.4 %
- Percentage change of mRNA expression of collagen type II by quantitative real-time PCR [3, 10]: 3.0 ± 0.9 %
- apoptotic rate of articular chondrocytes (TUNEL stained / DAPI stained cells) vs control cultures [4]: significantly increased
- mRNA expression of collagen type II gene (RT-PCR, normalized to 18S rRNA) vs control group [5, 11]: significantly decreased
- mRNA expression of collagen type II gene (RT-PCR, normalized to 18S rRNA) vs control group [5, 12]: significantly decreased
- Percentage change of mRNA expression of ALP by quantitative real-time PCR [6, 9]: 175.8 ± 13.5%
- Percentage change of mRNA expression of ALP by quantitative real-time PCR [6, 13]: 31,900.0 ± 4.7 %
- Percentage change of mRNA expression of ALP by quantitative real-time PCR [6, 10]: 735.6 ± 3.2 %
- mRNA expression of ALP gene (RT-PCR, normalized to 18S rRNA) vs control group [7, 11]: significantly increased
- mRNA expression of ALP gene (RT-PCR, normalized to 18S rRNA) vs control group [7, 12]: significantly increased
- increase of cell size as compared to the control cultures [8]: 26%
- cell size of articular chondrocytes (relative intensity in forward scatter) ([8]; mean ± SEM, control cultures 404.41±1.45, p<0.01): 509.20±1.93
